These compounds were tested against Human TrkA Protein (Homo sapiens (Human), UniProt P04629) (assay: Evaluation of Binding Activity for Human TrkA Protein (TrkA LanthaScreen Eu Kinase Binding Assay)). Settings: TrkA enzyme, Kinase Tracer 236, TR-FRET, 60 minutes at room temperature.
Method in brief: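 LanthaScreen Eu TR-FRET tracer-displacement binding with His-tagged human TrkA, Eu-anti-His antibody and Kinase Tracer 236. Incubation 60 min at room temperature. The 665/615 nm ratio (340 nm excitation) gave IC50, with solvent wells as 0% and no-TrkA wells as 100%.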

Sequence of Human TrkA Protein (P04629 33-796): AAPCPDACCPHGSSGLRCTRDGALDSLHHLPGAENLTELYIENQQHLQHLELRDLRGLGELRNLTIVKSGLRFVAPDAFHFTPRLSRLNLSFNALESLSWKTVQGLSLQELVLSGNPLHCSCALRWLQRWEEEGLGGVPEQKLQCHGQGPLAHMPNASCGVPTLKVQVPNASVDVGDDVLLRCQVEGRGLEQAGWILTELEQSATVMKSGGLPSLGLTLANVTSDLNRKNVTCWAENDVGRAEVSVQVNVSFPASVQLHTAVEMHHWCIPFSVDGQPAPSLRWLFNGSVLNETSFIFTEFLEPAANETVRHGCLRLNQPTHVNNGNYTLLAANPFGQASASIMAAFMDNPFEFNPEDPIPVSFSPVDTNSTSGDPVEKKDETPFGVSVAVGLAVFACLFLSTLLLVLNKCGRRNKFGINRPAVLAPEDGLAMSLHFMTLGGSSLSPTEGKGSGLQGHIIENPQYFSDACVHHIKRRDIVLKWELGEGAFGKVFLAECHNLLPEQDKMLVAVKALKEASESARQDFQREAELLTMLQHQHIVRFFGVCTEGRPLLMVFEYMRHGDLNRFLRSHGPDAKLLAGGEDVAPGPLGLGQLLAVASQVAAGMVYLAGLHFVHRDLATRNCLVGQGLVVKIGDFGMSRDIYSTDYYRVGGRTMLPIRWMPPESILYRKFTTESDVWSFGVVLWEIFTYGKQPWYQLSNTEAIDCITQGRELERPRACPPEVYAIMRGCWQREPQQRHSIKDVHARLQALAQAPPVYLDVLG

IC50, ≤ 50 nM:
Cc1cc(NC(=O)N[C@@H]2c3ccccc3C(C)(C)C[C@H]2O)c(-c2ccccc2)nc1-c1ccc(O)nc1 [Compound 20, 1-(6′-hydroxy-3-methyl-6-phenyl-[2,3′-bipyridin]-5-yl)-3-((1R,2R)-2-hydroxy-4,4-dimethyl-1,2,3,4-tetrahydronaphthalen-1-yl)urea]
Cc1cc(NC(=O)N[C@@H]2c3cc(F)c(F)cc3C(C)(C)C[C@H]2O)c(-c2ccccc2)nc1-c1ccc(C#N)cc1 (racemic) [Compound 52, rac-1-(6-(4-cyanophenyl)-5-methyl-2-phenylpyridin-3-yl)-3-((1R,2R)-6,7-difluoro-2-hydroxy-4,4-dimethyl-1,2,3,4-tetrahydronaphthalen-1-yl)urea]
rac-1-((1R,2R)-6,7-difluoro-2-hydroxy-4,4-dimethyl-1,2,3,4-tetrahydronaphthalen-1-yl)-3-(2-(hydroxymethyl)-3-methyl-6-phenyl-[2,4′-bipyridin]-5-yl)urea [Compound 56]
Cc1cc(NC(=O)N[C@@H]2c3ccccc3C(C)(C)C[C@H]2O)c(C2CCOCC2)nc1-c1cn[nH]c1 (racemic) [Compound 30, rac-1-((1R,2R)-2-hydroxy-4,4-dimethyl-1,2,3,4-tetrahydronaphthalen-1-yl)-3-(5-methyl-6-(1H-pyrazol-4-yl)-2-(tetrahydro-2H-pyran-4-yl)pyridin-3-yl)urea]
Cc1cc(NC(=O)N[C@@H]2c3cc(F)c(F)cc3C(C)(C)C[C@H]2O)c(-c2ccccc2)nc1-c1cnc(C(C)(C)O)nc1 (racemic) [Compound 54, rac-1-((1R,2R)-6,7-difluoro-2-hydroxy-4,4-dimethyl-1,2,3,4-tetrahydronaphthalen-1-yl)-3-(6-(2-(2-hydroxypropan-2-yl)pyrimidin-5-yl)-5-methyl-2-phenylpyridin-3-yl)urea]
Cc1cc(NC(=O)N[C@@H]2c3cc(F)c(F)cc3C(C)(C)C[C@H]2O)c(-c2ccccc2)nc1C(N)=O (racemic) [Compound 40, rac-5-(3-((1R,2R)-6,7-difluoro-2-hydroxy-4,4-dimethyl-1,2,3,4-tetrahydronaphthalen-1-yl)ureido)-3-methyl-6-phenylpicolinamide]
